Data taken from patent US7253286B2, “Nitrogen-containing aromatic derivatives” (Eisai Co., Ltd, priority 2000, dated 2007).

System: Human Umbilical Vein Endothelial Cells (HUVECs)
Experiment: Inhibition against sandwich tube formation by vascular endothelial cells in response to stimulation by VEGF
Type: cell-based
Conditions: HUVEC in collagen gel sandwich, stimulation by VEGF (25 ng/ml VEGF and 10 ng/ml EGF), 4th day, total tube length, read-out: IC50 (concentration required for 50% inhibition of tube formation)
Experimental: Inhibition Against Sandwich Tube Formation by Vascular Endothelial Cells in Response to Stimulation by Angiogenic Factor
Human Umbilical Vein Endothelial Cells (HUVECS) were isolated by the same method as in Pharmacological Test Example 1, and were cultured in a 5% CO2 incubator (37° C.) using EGM-2 medium (purchased from Clonetics Corp.) until the cells reached confluency.
An ice-cooled mixture of collagen: 5× RPMI 1640: reconstitution buffer (all purchased from Nitta Gelatin, Inc.) at 7:2:1 was dispensed at 0.4 ml into each well of a 24-well plate, and then stationed for 40 minutes in a 5% CO2 incubator (37° C.) for gelling. The HUVECs were recovered using trypsin-EDTA and then suspended in human endothelial serum free medium (SFM, purchased from GIBCO BRL) containing added angiogenic factors [20 ng/ml FGF2 (purchased from GIBCO BRL) and 10 ng/ml EGF (purchased from GIBCO BRL), or 25 ng/ml VEGF (purchased from Wako Pure Chemical Industries Co., Ltd.) and 10 ng/ml EGF, or 30 ng/ml HGF (purchased from R&D Co.) and 10 ng/ml EGF], and the cell suspension was added at 0.4 ml to each well (with the cell counts differing slightly according to the HUVEC lot), and cultured overnight in a 5% CO2 incubator (37° C.). On the following day, the medium on the upper layer was aspirated off, and then 0.4 ml of an ice-cooled mixture of collagen: 5× RPMI 1640: reconstitution buffer (all purchased from Nitta Gelatin, Inc.) at 7:2:1 was superposed into each well prior to stationing for 4 hours in a 5% CO2 incubator (37° C.) for gelling. After adding 1.5 ml of an SFM solution containing each of the aforementioned angiogenic factors and a diluted test substance onto the upper layer, culturing was performed in a 5% CO2 incubator (37° C.). Upon aspirating off the culture supernatant in each well on the 4th day after addition of the test substance, 0.4 ml of a 3.3 mg/ml MTT solution dissolved in PBS (purchased from Sigma Corp.) was added to each well and culturing was performed for approximately 2 hours in a 5% CO2 incubator (37° C.). The tubes formed in the collagen gel of each well were stained by the MTT, the tube images were loaded into a computer (Macintosh), and the total length of the tubes was determined by image analysis software “MacScope” (purchased from Mitani Corp.). The ratio of the total length of the tubes formed in the well containing the test substance with respect to the total length of the tubes formed in the well containing no test substance was expressed as a percentage, and the concentration of each test substance required for 50% inhibition of tube formation (IC50) was determined from the ratio value.

Compound | IC50
COCCOc1cc2nccc(Oc3ccc(NC(=O)Nc4nccs4)cc3)c2cc1C#N [Example 12, N-(4-(6-cyano-7-(2-methoxyethoxy)-4-quinolyl)oxyphenyl)-N′-(1,3-thiazol-2-yl)urea] | 44 nM
COCCOc1cc2nccc(Oc3ccc(NC(=O)Nc4cccc(C#N)c4)cc3)c2cc1C#N [Example 19, N-(4-(6-Cyano-7-(2-methoxyethoxy)-4-quinolyl)oxyphenyl)-N′-(3-cyanophenyl)urea] | 28 nM
COCCOc1cc2nccc(Oc3ccc(NC(=O)NC4CC4)cc3)c2cc1C#N [Example 23, N-(4-(6-cyano-7-(2-methoxyethoxy)-4-quinolyl)oxyphenyl)-N′-cyclopropylurea] | 100 nM
CS(=O)(=O)CCOc1cc2nccc(Oc3ccc(NC(=O)Nc4ccc(F)cc4)cc3)c2cc1C#N [Example 59, N-(4-(6-Cyano-7-(2-(methylsulfonyl)ethoxy)-4-quinolyl)oxyphenyl)-N′-(4-fluorophenyl)urea] | 170 nM
COC(=O)CCCOc1cc2nccc(Oc3ccc(NC(=O)Nc4ccc(OC)cc4)cc3)c2cc1C#N [Example 70, N-(4-(6-Cyano-7-(3-methoxycarbonylpropoxy)-4-quinolyl)oxyphenyl)-N′-(4-methoxyphenyl)urea] | 58 nM
CS(=O)(=O)CCCOc1cc2nccc(Oc3ccc(NC(=O)Nc4ccc(F)cc4)cc3)c2cc1C#N [Example 108, N-(4-(6-Cyano-7-(3-(methylsulfonyl)propoxy)-4-quinolyloxy)phenyl)-N′-(4-fluorophenyl)urea] | 4.9 nM
CN1CCCC(COc2cc3nccc(Oc4ccc(NC(=O)Nc5ccc(F)cc5)c(F)c4)c3cc2C#N)C1 (centres unmarked) [Example 127, N-(4-(6-Cyano-7-((1-methylpiperidin-3-yl)methoxy)-4-quinolyl)oxy-2-fluorophenyl)-N′-(4-fluorophenyl)urea] | 7.5 nM
COc1cc2nccc(Oc3ccc(NC(=O)Nc4ccccc4)cn3)c2cc1OC [Example 129, N-6-((6,7-Dimethoxy-4-quinolyl)oxy)-3-pyridyl-N′-phenylurea] | 40 nM
N#Cc1cc2c(Oc3ccc(NC(=O)Nc4ccc(F)cc4)c(F)c3)ccnc2cc1OCCCC(=O)NC1CC1 [Example 137, N-(4-(6-Cyano-7-(3-((cyclopropylamino)carbonyl)propoxy)-4-quinolyl)oxy-2-fluorophenyl)-N′-(4-fluorophenyl)urea] | 10 nM
O=C(Nc1ccc(Oc2ncnc3[nH]c(-c4ccc(OCCCN5CCCC5)cc4)cc23)cc1Cl)NC1CC1 [Example 155] | 1.4 nM
CCN(CC)C[C@@H](O)COc1ccc(-c2cc3c(Oc4ccc(NC(=O)NC5CC5)c(Cl)c4)ncnc3[nH]2)cc1 [Example 157] | 0.9 nM
C#Cc1c(Oc2ccc(NC(=O)Nc3ccc(F)cc3)cc2)ccnc1N(C(=O)C1CC1)C(=O)C1CC1 [Example 186, N1-Cyclopropylcarbonyl-N1-[3-(1-ethynyl)-4-(4-{[(4-fluoroanilino)carbonyl]amino}phenoxy)-2-pyridyl]-1-cyclopropanecarboxamide] | 23 nM
O=C(Nc1cc(Oc2ccc3c(ccn3C(=O)Nc3ccccc3)c2)ccn1)C1CCN(CC2CC2)CC1 [Example 198, N1-Phenyl-5-{[2-({[(1-cyclopropylmethyl)-4-piperidyl]carbonyl}amino)-4-pyridyl]oxy}-1H-1-indolecarboxamide] | 1.5 nM
CN1CCC(C(=O)Nc2cc(Oc3ccc(NC(=O)Nc4ccc(F)cc4)c(Cl)c3)ccn2)CC1 [Example 202, N4-[4-(3-Chloro-4-{[(4-fluoroanilino)carbonyl]amino}phenoxy)-2-pyridyl]-1-methyl-4-piperidinecarboxamide] | 15 nM
CN1CCC(CC(=O)Nc2cc(Oc3ccc4c(ccn4C(=O)Nc4ccccc4)c3)ccn2)CC1 [Example 204, N1-Phenyl-5-[(2-{[2-(1-methyl-4-piperidyl)acetyl]amino}-4-pyridyl)oxy]-1H-1-indolecarboxamide] | 0.9 nM
O=C(C1CC1)N(C(=O)C1CC1)c1cc(Oc2ccc3c(ccn3C(=O)NC3CC3)c2)ccn1 [Example 211, N1-Cyclopropyl-5-({2-[di(cyclopropylcarbonyl)amino]-4-pyridyl}oxy)-1H-1-indolecarboxamide] | 0.3 nM

Compound | IC50
O=C(Nc1cc(Oc2ccc3c(ccn3C(=O)NCCF)c2)ccn1)C1CC1 [Example 215, N1-(2-Fluoroethyl)-5-({2-[(cyclopropylcarbonyl)amino]-4-pyridyl}oxy)-1H-1-indolecarboxyamide] | 22 nM
COc1cc2nccc(Oc3ccc(NC(=O)Nc4nccs4)nc3)c2cc1OC [Example 224, N-(5-(6,7-Dimethoxyquinolin-4-yloxy)pyridin-2-yl)-N′-(thiazol-2-yl)urea] | 26 nM
COCCNC(=O)c1cc2c(Oc3ccc(NC(=O)NC4CC4)c(Cl)c3)ccnc2cc1OCCOC [Example 249, N6-(2-Methoxyethyl)-4-(3-chloro-4-{[(cyclopropylamino)carbonyl]amino}phenoxy)-7-(2-methoxyethoxy)-6-quinolinecarboxamide] | 1.6 nM
COCCOc1cc2nccc(Sc3ccc(NC(=O)Nc4ccccc4F)s3)c2cc1C#N [Example 256, 1-{5-[6-Cyano-7-(2-methoxyethoxy)quinolin-4-ylsulfanyl]thiophen-2-yl}-3-(2-fluorophenyl)urea] | 36 nM
N#Cc1cc2c(Oc3ccc4c(ccn4C(=O)Nc4nccs4)c3)ccnc2cc1OCCCN1CCCC1 [Example 289, 5-[6-Cyano-7-(3-(pyrrolidin-1-yl)propoxy)quinolin-4-yloxy]indole-1-carboxylic acid (thiazol-2-yl)amide] | 4.6 nM
CCN(CC)CCCOc1cc2nccc(Oc3ccc4[nH]ccc4c3)c2cc1C#N [Example 296, 7-(3-Diethylaminopropoxy)-4-(1H-indol-5-yloxy)quinoline-6-carbonitrile] | 34 nM
CCNC(=O)n1ccc2cc(Oc3ccnc4cc(OCCCN5CCCC5)c(C#N)cc34)ccc21 [Example 299, 5-[6-Cyano-7-(3-(pyrrolidin-1-yl)propoxy)quinolin-4-yloxy]indole-1-carboxylic acid ethylamide] | 1 nM
CCN(CC)CCCOc1cc2nccc(Oc3ccc4c(ccn4C(=O)Nc4nccs4)c3)c2cc1C#N [Example 300, 5-[6-Cyano-7-(3 diethylaminopropoxy)quinolin-4-yloxy]indole-1-carboxylic acid (thiazol-2-yl)amide] | 7.5 nM
CCNC(=O)n1ccc2cc(Oc3ccnc4cc(OCC5CCN(C)CC5)c(C#N)cc34)ccc21 [Example 304, 6-Cyano-4-(1-ethylcarbamoylindol-5-yloxy)-7-[(1-methylpiperidin-4-yl)methyloxy]quinoline] | 0.3 nM
CN1CCC(COc2cc3nccc(Oc4ccc5c(ccn5C(=O)Nc5nccs5)c4)c3cc2C#N)CC1 [Example 308] | 5.2 nM
COc1cc2nccc(Oc3ccc4c(ccn4C(=O)NC(C)C)c3)c2cc1C(N)=O [Example 320, 6-Carbamoyl-7-methoxy-4-[1-(1-methyl)ethylcarbamoyl-1H-indol-5-yloxy]quinoline] | 2.5 nM
COc1cc2nccc(Oc3ccc4c(ccn4C(=O)NCCCCl)c3)c2cc1C(N)=O [Example 325, 6-Carbamoyl-4-[1-(3-chloropropylcarbamoyl)1H-indol-5-yloxy]-7-methoxyquinoline] | 1 nM
CCOCCCNC(=O)n1ccc2cc(Oc3ccnc4cc(OC)c(C(N)=O)cc34)ccc21 [Example 326, 6-Carbamoyl-4-[1-(3-ethoxypropylcarbamoyl)1H-indol-5-yloxy]-7-methoxyquinoline] | 1 nM
CCN(CC)CCCNC(=O)n1ccc2cc(Oc3ccnc4cc(OC)c(C(N)=O)cc34)ccc21 [Example 327, 6-Carbamoyl-4-[1-(3-diethylaminopropylcarbamoyl)1H-indol-5-yloxy]-7-methoxyquinoline] | 56 nM
CCN(CC)CCCOc1cc2nccc(Oc3ccc(NC(=O)NC4CC4)c(F)c3)c2cc1C(N)=O [Example 372, 4-(4-(Cyclopropylaminocarbonyl)amino-3-fluorophenoxy)-7-(3-(N,N-diethylamino)propoxy)-6-quinolinecarboxamide] | 44 nM
NC(=O)c1cc2c(Oc3ccc(NC(=O)NC4CC4)c(Cl)c3)ccnc2cc1OCCO [Example 386, 4-(3-Chloro-4-(cyclopropylaminocarbonyl)aminophenoxy)-7-(2-hydroxyethoxy)-6-quinolinecarboxamide] | 10 nM
